Results from patent US11787785B2 (NOVARTIS AG, priority 2021, dated 2023).

Target: T1, WIZ protein (HiBit-WIZ fusion protein) (Homo sapiens, UniProt O95785+Q96SW2)
T1 construct: expressed in transfected cells
Assay: Quantification of WIZ protein levels in HiBit tag fusion protein assay (WIZ HiBit assay in 293T cells)
Assay type: cell-based
Settings: for Dmax at 25 µM / remaining activity at 25 µM: HEK-293T, 293T cells; for Dmax at 25 µM: 100 − Amax, read-out: % degradation of WIZ (100 − Amax); for remaining activity at 25 µM: DMSO-normalized, curve-fitted percentage of WIZ-HiBit remaining at 25 uM, read-out: WIZ Amax; for DC50: WIZ HiBit assay in 293T cells, 10-point, 5-fold dose response, highest concentration 25 μM, about 18 hours, read-out: WIZ AC50
Method in brief: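 HiBit-tagged WIZ (N-terminal tag, HSVTK promoter) stably expressed single-copy in 293T cells; 10-point 1:5 compound series, top 25 μM, ~18 h at 37 °C. Lytic HiBit/LgBit luminescence read; Amax = curve-fitted % WIZ-HiBit remaining at 25 μM, DMSO normalized to 100%.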

T1 sequence (O95785 whole entry, the tested form may be a part): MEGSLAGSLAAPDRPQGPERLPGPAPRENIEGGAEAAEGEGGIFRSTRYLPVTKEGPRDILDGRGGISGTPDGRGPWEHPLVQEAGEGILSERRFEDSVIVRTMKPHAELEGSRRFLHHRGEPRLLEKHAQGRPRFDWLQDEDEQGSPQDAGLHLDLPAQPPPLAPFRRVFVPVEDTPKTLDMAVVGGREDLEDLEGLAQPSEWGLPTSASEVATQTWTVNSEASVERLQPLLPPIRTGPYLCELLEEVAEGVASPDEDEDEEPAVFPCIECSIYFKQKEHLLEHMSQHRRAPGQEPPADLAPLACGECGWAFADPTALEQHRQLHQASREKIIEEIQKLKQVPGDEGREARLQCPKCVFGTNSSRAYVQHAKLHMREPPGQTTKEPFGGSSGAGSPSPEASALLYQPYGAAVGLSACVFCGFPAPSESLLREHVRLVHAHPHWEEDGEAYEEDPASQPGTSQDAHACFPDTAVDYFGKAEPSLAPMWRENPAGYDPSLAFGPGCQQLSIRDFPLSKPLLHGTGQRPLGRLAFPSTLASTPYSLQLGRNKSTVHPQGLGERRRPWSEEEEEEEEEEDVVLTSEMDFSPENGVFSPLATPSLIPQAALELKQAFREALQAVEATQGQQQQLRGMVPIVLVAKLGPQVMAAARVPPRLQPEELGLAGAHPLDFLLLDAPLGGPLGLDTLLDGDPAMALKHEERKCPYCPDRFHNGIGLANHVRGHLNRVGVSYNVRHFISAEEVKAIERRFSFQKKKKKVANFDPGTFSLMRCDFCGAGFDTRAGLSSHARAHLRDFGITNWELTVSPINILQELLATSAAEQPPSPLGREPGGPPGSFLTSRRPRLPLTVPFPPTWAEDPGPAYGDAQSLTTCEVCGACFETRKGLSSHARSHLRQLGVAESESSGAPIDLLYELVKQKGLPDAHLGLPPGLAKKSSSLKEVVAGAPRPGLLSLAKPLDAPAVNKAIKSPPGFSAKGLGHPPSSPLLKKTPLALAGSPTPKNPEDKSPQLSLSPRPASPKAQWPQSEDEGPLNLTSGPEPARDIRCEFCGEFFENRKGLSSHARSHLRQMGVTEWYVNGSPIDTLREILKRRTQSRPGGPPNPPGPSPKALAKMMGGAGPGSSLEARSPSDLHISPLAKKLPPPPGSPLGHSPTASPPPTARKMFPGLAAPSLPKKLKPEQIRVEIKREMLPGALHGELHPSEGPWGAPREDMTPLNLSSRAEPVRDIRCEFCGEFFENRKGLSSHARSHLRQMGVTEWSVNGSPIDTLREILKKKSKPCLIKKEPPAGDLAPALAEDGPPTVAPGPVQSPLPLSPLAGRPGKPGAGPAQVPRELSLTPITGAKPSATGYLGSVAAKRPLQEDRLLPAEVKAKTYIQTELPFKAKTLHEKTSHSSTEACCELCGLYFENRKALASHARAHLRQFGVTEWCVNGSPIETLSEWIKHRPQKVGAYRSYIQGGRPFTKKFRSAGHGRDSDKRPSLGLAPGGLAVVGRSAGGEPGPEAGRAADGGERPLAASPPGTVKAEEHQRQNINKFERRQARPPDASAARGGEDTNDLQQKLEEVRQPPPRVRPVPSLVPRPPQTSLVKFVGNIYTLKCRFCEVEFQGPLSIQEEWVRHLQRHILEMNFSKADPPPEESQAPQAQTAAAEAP
T1 sequence (Q96SW2 whole entry, the tested form may be a part): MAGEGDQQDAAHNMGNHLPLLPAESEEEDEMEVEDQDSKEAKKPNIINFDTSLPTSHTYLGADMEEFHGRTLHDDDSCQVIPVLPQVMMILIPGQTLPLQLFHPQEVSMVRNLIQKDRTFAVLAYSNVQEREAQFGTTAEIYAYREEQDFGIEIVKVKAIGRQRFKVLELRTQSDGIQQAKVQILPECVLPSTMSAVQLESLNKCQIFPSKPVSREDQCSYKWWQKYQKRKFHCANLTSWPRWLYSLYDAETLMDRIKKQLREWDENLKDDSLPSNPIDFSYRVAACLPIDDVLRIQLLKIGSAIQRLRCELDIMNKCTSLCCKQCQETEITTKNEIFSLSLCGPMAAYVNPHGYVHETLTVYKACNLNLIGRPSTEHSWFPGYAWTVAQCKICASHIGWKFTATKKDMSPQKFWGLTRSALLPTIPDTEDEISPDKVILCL
T1 sequence (Q16531 whole entry partner, the tested form may be a part): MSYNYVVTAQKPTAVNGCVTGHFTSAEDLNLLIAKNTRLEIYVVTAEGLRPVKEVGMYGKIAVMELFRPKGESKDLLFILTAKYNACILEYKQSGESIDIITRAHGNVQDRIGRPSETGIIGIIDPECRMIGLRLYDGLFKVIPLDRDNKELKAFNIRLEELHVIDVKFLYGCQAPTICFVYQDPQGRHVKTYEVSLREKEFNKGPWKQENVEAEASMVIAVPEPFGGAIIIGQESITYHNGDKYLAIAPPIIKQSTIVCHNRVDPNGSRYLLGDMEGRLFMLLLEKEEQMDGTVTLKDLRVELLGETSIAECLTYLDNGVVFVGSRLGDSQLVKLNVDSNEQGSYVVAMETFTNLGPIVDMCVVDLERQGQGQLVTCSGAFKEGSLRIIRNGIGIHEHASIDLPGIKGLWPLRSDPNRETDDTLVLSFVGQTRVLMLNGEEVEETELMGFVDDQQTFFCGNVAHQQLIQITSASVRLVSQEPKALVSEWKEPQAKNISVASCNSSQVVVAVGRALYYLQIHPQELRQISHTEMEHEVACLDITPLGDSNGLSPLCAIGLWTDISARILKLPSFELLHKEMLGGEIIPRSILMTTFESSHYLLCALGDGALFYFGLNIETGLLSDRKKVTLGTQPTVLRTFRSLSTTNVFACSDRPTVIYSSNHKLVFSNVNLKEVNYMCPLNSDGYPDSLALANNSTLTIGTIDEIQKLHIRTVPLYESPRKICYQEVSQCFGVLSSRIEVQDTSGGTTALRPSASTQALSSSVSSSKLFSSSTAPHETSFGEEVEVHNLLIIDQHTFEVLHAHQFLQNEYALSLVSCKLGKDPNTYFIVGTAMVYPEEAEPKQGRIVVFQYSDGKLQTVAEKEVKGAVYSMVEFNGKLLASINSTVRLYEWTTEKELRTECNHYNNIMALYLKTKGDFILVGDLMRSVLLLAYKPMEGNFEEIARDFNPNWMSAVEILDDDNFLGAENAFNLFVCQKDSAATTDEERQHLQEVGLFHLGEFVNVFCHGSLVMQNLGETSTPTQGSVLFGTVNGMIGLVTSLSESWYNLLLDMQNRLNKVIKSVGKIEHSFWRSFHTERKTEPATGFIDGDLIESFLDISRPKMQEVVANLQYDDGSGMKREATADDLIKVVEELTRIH

Compound	Dmax at 25 µM [%]	remaining activity at 25 µM [%]	DC50 [nM]
C[C@H]1C[C@H](Cc2ccn3ncc(N4CCC(=O)NC4=O)c3c2)CCN1C[C@@H]1CCC(F)(F)C1 [Example 306, 1-(5-(((2S,4R)-1-(((R)-3,3-difluorocyclopentyl)methyl)-2-methylpiperidin-4-yl)methyl)pyrazolo[1,5-a]pyridin-3-yl)dihydropyrimidine-2,4(1H,3H)-dione]	84	16	8
O=C1CCN(c2cnn3ccc(CC4CCN(CC5(C(F)(F)F)CC5)CC4)cc23)C(=O)N1 [Example 55, 1-(5-((1-((1-(trifluoromethyl)cyclopropyl)methyl)piperidin-4-yl)methyl)pyrazolo[1,5-a]pyridin-3-yl)dihydropyrimidine-2,4(1H,3H)-dione]	64	36	103
O=C1CCN(c2cnn3ccc(CN4CCN(C5CCCCC5)CC4)cc23)C(=O)N1 [Example 338, 1-(5-((4-cyclohexylpiperazin-1-yl)methyl)pyrazolo[1,5-a]pyridin-3-yl)dihydropyrimidine-2,4(1H,3H)-dione]	83	17	33
C[C@H]1C[C@@H](Cc2ccn3ncc(N4CCC(=O)NC4=O)c3c2)CCN1CC1CCOCC1 [Example 73]	89	11	3
O=C1CCN(c2cnn3ccc(CN4CCN(CC5CCC5)CC4)cc23)C(=O)N1 [Example 188, 1-(5-((4-(cyclobutylmethyl)piperazin-1-yl)methyl)pyrazolo[1,5-a]pyridin-3-yl)dihydropyrimidine-2,4(1H,3H)-dione]	77	23	71
O=C1CCN(c2cnn3ccc(CN4CCN(CC5CCC(F)(F)CC5)CC4)cc23)C(=O)N1 [Example 157]	83	17	22
CC(C)[C@H]1CN(Cc2ccn3ncc(N4CCC(=O)NC4=O)c3c2)CCN1CC1CCOCC1 [Example 230, (S)-1-(5-((3-isopropyl-4-((tetrahydro-2H-pyran-4-yl)methyl)piperazin-1-yl)methyl)pyrazolo[1,5-a]pyridin-3-yl)dihydropyrimidine-2,4(1H,3H)-dione]	0	100	> 25000
C[C@H]1CN(Cc2ccn3ncc(N4CCC(=O)NC4=O)c3c2)CCN1CC1CCCC1 [Example 212]	84	16	29
C[C@H]1CN(Cc2ccn3ncc(N4CCC(=O)NC4=O)c3c2)CCN1C1CC2(CCC2)C1 [Example 335]	88	12	6
O=C1CCN(c2cnn3ccc(CC4CCN(C[C@H]5C[C@@H](F)[C@@H](F)C5)CC4)cc23)C(=O)N1 [Example 301, 1-(5-((1-(((1r,3R,4S)-3,4-difluorocyclopentyl)methyl)piperidin-4-yl)methyl)pyrazolo[1,5-a]pyridin-3-yl)dihydropyrimidine-2,4(1H,3H)-dione]	86	14	2
C[C@H]1CN(Cc2ccn3ncc(N4CCC(=O)NC4=O)c3c2)CCN1CC1CC2(C1)CC(F)(F)C2 [Example 326, (S)-1-(5-((4-((6,6-difluorospiro[3.3]heptan-2-yl)methyl)-3-methylpiperazin-1-yl)methyl)pyrazolo[1,5-a]pyridin-3-yl)dihydropyrimidine-2,4(1H,3H)-dione]	87	13	49
CO[C@H]1C[C@H](CN2CCN(Cc3ccn4ncc(N5CCC(=O)NC5=O)c4c3)C[C@@H]2C)C1 [Example 316, 1-(5-(((S)-4-(((1r,3S)-3-methoxycyclobutyl)methyl)-3-methylpiperazin-1-yl)methyl)pyrazolo[1,5-a]pyridin-3-yl)dihydropyrimidine-2,4(1H,3H)-dione]	83	17	61
